Laboratory results: patent US20140094485A1, “SOLID STATE FORMS OF HIV INHIBITOR” (Gilead Sciences, Inc., priority 2012, published 2014)
Where a name gives a salt, the structure may show the parent alone.

Experiments:
[1] = Tabletability (tablet tensile strength as a function of upper punch compression pressure); type: physicochemical; settings: for Tablet Tensile Strength: immediate release formulation, Form A
Excerpt: As used herein, the term “tabletability” refers to the capacity of a powdered material to be transformed into a tablet of specified strength under the effect of compaction pressure. Tabletability is the tensile strength as a function of compression force and describes the effectiveness of the applied pressure in increasing the tensile strength of the tablet.

[2] = Thermal gravimetric analysis (TGA); type: physicochemical; settings: heating up to 175° C.; FIG. 4
Procedure: The TGA analysis was conducted on a […]. The thermal gravimetric curve was obtained on a sample heated at 10° C. per minute in a open cup under a nitrogen flow.

For Cc1nc2ccccc2c(-c2ccc3c4c(ccnc24)CCO3)c1[C@H](OC(C)(C)C)C(=O)O (atropisomer, axis not shown) [hemi-succinate salt of Compound (I), (2S)-2-tert-butoxy-2-(4-(2,3-dihydropyrano[4,3,2-de]quinolin-7-yl)-2-methylquinolin-3-yl)acetic acid], the “Tablet Tensile Strength” value ([1]; Upper Punch Compression Pressure 98 MPa) was 2.17 MPa, the “Tablet Tensile Strength” value ([1]; Upper Punch Compression Pressure 140 MPa) was 2.94 MPa and the “Tablet Tensile Strength” value ([1]; Upper Punch Compression Pressure 197 MPa) was 3.18 MPa. The “Tablet Tensile Strength” value ([1]; Upper Punch Compression Pressure 253 MPa) was 3.41 MPa, the tabletability ([1]; result in words, FIG. 5) was “improved tabletability” and the “weight loss during heating” value [2] was “minimal weight loss”.
